From patent publication US20040092590A1, “Glycemic control for prediabetes and/or diabetes Type II using docosahexaenoic acid” (priority 2002, published 2004)

How the values were obtained:
[1] = test system: KK-Ay mouse (obese diabetic mice); details: 100 mg/kg body weight, not normal or lean diabetic mice; cited from earlier work
[2] = test system: patients with dyslipidemia; test: Clinical study: DHASCO capsules co-administered with statin medication for 12 months; format: in vivo, human; details: patients treated with DHA
Excerpt: Thus, the present inventors have discovered that DHA has a long term effect (as shown by reduction in glycosylated hemoglobin levels reflecting longer term glucose control integrated over 2-3 months). Finally, the inventors have discovered that therapy using DHA-containing oils can be effective at DHA levels that are not excessive (e.g., at levels which minimize side effects associated with fatty acid ingestion).
In a clinical study, DHASCO capsules (which contained DHA as a triglyceride oil extracted from Crypthecodinium cohnii cells, obtained from Martek Biosciences Corp., Columbia, Md.) were co-administered with statin medication to patients with dyslipidemia. Hyperlipidemic patients already being treated with a stable dose of a statin medication but still failing to meet NCEP guidelines for LDL-cholesterol or triglycerides were treated with either 200 or 1000 mg of DHA daily for 12 months. HbA1c levels (glycosylated hemoglobin, a marker of glycemic control) were measured in plasma at baseline and after 8 or 12 months of treatment.
Reduction in CRP of this extent is clinically significant, and may be correlated with a benefit of reduced risk of Type II diabetes onset, independent of other Type II risk factors.

[3] = test system: subjects with HDL levels below the sex-specific median; test: Randomized, double-blind, controlled trial of DHASCO-S capsules, six weeks; metabolic disturbance score, serum lipids, LDL particles; format: in vivo, human; details: 1.52 g DHA per day
Excerpt: DHASCO-S capsules (which contained DHA as a triglyceride oil extracted from Schizochytrium sp. cells, obtained from Martek Biosciences Corp., Columbia, Md.) were used in the following study. Subjects (n=57) were enrolled in a randomized, double-blind, controlled trial to assess the response to 1.52 g of DHA per day for six weeks. Subjects were aged 21-80 and had HDL levels below the sex-specific median (a criterion for metabolic syndrome). The average triglyceride (TG) level at the beginning of the study was 169-179 mg/dl (metabolic syndrome criterion >150 mg/dL). The average distribution of LDL particles in this population was 44-50% small dense particles. Small dense particles are another lipid hallmark of metabolic syndrome. […] The average waist circumference for men and women combined was about 100+/−2.5 cm (criterion for metabolic syndrome is about 88 cm for women and about 102 cm for men). The average blood pressure in the study was normotensive at 120/77 mmHg.
The metabolic disturbance score was calculated to assess the relationship between independent variables and the criterion related to metabolic syndrome. The score is a composite of values for selected risk factors including: serum triglycerides, serum HDL cholesterol, systolic blood pressure, waist circumference, and fasting serum glucose. The following formula was utilized to calculate the metabolic score, where Z=the z score, i.e., the number of standard deviations above or below the mean value for each variable (Micciolo 1991; Maki 1994): Metabolic Disturbance Score=Z for triglycerides+Z for systolic blood pressure+Z for waist circumference+Z for glucose−Z for HDL cholesterol. Since triglyceride values were not normally distributed, a natural log-transformation was performed to normalize the distribution prior to calculating the Z score.
Additionally, pre-specified subgroup analyses were performed for serum lipid and metabolic disturbance score values. The triglyceride subgroups were split at the median baseline value (170 mg/dL). A Body Mass Index (BMI) of 30 kg/m^2 was chosen as the cut-point for BMI subgroups (BMI<30 kg/m2 and BMI≧30 kg/m^2) because persons with a BMI≧30 kg/M^2 are considered obese (Expert Panel 1998).

[4] = test system: patients; details: cited from earlier work

CC/C=C\C/C=C\C/C=C\C/C=C\C/C=C\C/C=C\CCC(=O)OCC [DHA ethyl ester]
blood glucose [1]: reduced
insulin sensitivity [1]: enhanced
plasma triglycerides [1]: reduced

CC/C=C\C/C=C\C/C=C\C/C=C\C/C=C\C/C=C\CCC(=O)O [DHA, docosahexaenoic acid]
overall reduction in CRP levels [2]: 15%
increase in large LDL particles from baseline to end of treatment ([3]; P=0.028 vs control): 32.4%
change in small LDL particles from baseline ([3]; P=0.191 vs control): −23.2%
change in TG from baseline ([3]; p=0.001 vs control): −25.4%
increase in HDL ([3]; p=0.102 vs control): +9.0%
change from baseline in metabolic disturbance score, subgroup ([3]; subjects with baseline triglycerides >=170 mg/dL, p=0.001 vs control): −1.16

CN(C)C(=N)N=C(N)N [Metformin]
patients with gastrointestinal reactions ([4]; fraction of patients): about a third
lactic acidosis cases that are fatal ([4]; rare reaction): about 50%
